Reference: PubChem BioAssay AID1963875 (Molecular Pharmacology Branch, DTP, NCI, 2024)

Tested on: KRAS-mutant PDC complex spheroid viability
Assay: Anticancer human tumor 186277-243-T-J2-PDC patient-derived colon adenocarcinoma cell line growth inhibition [KRAS2]
Conditions: for IC50: curve of first compound; for viability, T/C: stronger effect = lower value
Text: Multicellular complex tumor spheroid response to RAS pathway inhibitors in combination with a targeted agents in patient-derived cell lines with oncogenic KRAS variants from multiple cancer types
A high-throughput screen of multi-cell type tumor spheroids was designed to identify active combinations of targeted small molecules and KRAS pathway inhibitors. Complex spheroids include a stromal component modeled by human endothelial cells (HUVEC) and fibroblasts modeled by human mesenchymal stem cells (MSCs). The concentration ranges selected for each drug and investigational agent were based upon clinically achievable concentrations if the clinical Cmax of the agent was known.
Compounds. The drugs and investigational agents: BI-3406 (NSC825286), BAY-293 (NSC824723), batoprotafib (TNO155; NSC825523), sotorasib (AMG 510; NSC818433), MRTX1257 (NSC819558), elimusertib (BAY 1895344; NSC800525), molibresib (GSK525762; NSC774829), temuterkib (LY3214996; NSC803410), venetoclax (NSC766270), alisertib (NSC759677), olaparib (NSC753686), talazoparib (NSC767125), erdafitinib (NSC781556), ipatasertib (NSC767898), cabozantinib (NSC761068), nintedanib (NSC756659), abemaciclib (NSC768073), docetaxel (NSC628503), trametinib (NSC758246), and sapanisertib (NSC764658) were obtained from the National Cancer Institute (NCI) Developmental Therapeutics Program Chemical Repository. The FDA-approved anticancer drug set is available from the Developmental Therapeutics Program. […] The stock solutions were prepared in dimethyl sulfoxide (DMSO, Sigma-Aldrich, St. Louis, MO, cat. D2650) at 800-fold the tested concentration and stored at -70 degrees C prior to their use. All drugs and investigational agents were tested over a range starting from a high concentration at or near the clinical Cmax and decreasing in half-log increments. If the clinical Cmax for an agent had not been determined, the highest concentration tested was 10 microM.
Cell Culture. All cells were maintained in an incubator at 37 degrees C and 5% CO2 with 95% humidity. The PDC lines were cultured according to standard operating procedures established by the NCI PDMR (https://pdmr.cancer.gov/sops/default.htm). Briefly, all PDCs were thawed and cultured in Matrigel-coated flasks prepared with a working solution of 1X Ham's F-12 nutrient mix, without supplementation (Invitrogen, Waltham, MA, cat. 11765054), 100 U/mL penicillin-streptomycin (Invitrogen, cat. 15140122), and 2.5% Matrigel (Corning Inc., Corning, NY, cat. 354248) for the first three passages. All PDCs were cultured in complete DMEM/F-12 media containing advanced DMEM/F-12 (Invitrogen, cat. 12634028), 4.9% defined fetal bovine serum, heat inactivated (HyClone Laboratories Inc., Logan, UT, cat. SH30070.03HI), 389 ng/mL hydrocortisone (Sigma-Aldrich, cat. H4001), 9.7 ng/mL human EGF recombinant protein (Invitrogen, cat. PHG0313), 23.4 microg/mL adenine (Sigma-Aldrich, cat. A2786), 97.3 U/mL penicillin-streptomycin (Invitrogen, cat. 15140122), 1.9 mM L-glutamine (Invitrogen, cat. 25030081), and 9.7 microM Y-27632 dihydrochloride (Tocris Bioscience, Bristol, United Kingdom, cat. 1254). The PDCs were cultured in complete DMEM/F12 media without 9.7 microM Y-27632 dihydrochloride for at least two passages prior to the screen. The established cell line HOP-62 was cultured in RPMI 1640 medium, HEPES (Invitrogen, cat. 22400105) with 10% defined fetal bovine serum (HyClone Laboratories Inc., cat. SH30070.03) and 2 mM L-glutamine (Invitrogen, cat. 25030081). The pooled donor HUVEC were cultured in endothelial cell growth medium 2 (PromoCell, Heidelberg, Germany, cat. C-22011) and the hMSC were cultured in mesenchymal stem cell growth medium 2 (PromoCell, cat. C-28009). For all experiments, HUVEC and hMSC were used at passages </=5, while the malignant cell lines were used at passages </=15. […]

[1] = second compound 0.1 µM, first compound 0.000316 µM
[2] = second compound 0.1 µM, first compound 0.001 µM
[3] = second compound 0.1 µM, first compound 0.00316 µM
[4] = second compound 0.1 µM, first compound 0.01 µM
[5] = second compound 0.1 µM, first compound 0.0316 µM
[6] = second compound 0.1 µM, first compound 0.1 µM
[7] = second compound 0.316 µM, first compound 0.000316 µM
[8] = second compound 0.316 µM, first compound 0.001 µM
[9] = second compound 0.316 µM, first compound 0.00316 µM
[10] = second compound 0.316 µM, first compound 0.01 µM
[11] = second compound 0.316 µM, first compound 0.0316 µM
[12] = second compound 0.316 µM, first compound 0.1 µM
[13] = second compound 1 µM, first compound 0.000316 µM
[14] = second compound 1 µM, first compound 0.001 µM
[15] = second compound 1 µM, first compound 0.00316 µM
[16] = second compound 1 µM, first compound 0.01 µM
[17] = second compound 1 µM, first compound 0.0316 µM
[18] = second compound 1 µM, first compound 0.1 µM
[19] = second compound 3.16 µM, first compound 0.000316 µM
[20] = second compound 3.16 µM, first compound 0.001 µM
[21] = second compound 3.16 µM, first compound 0.00316 µM
[22] = second compound 3.16 µM, first compound 0.01 µM
[23] = second compound 3.16 µM, first compound 0.0316 µM
[24] = second compound 3.16 µM, first compound 0.1 µM
[25] = second compound 10 µM, first compound 0.000316 µM
[26] = second compound 10 µM, first compound 0.001 µM
[27] = second compound 10 µM, first compound 0.00316 µM
[28] = second compound 10 µM, first compound 0.01 µM
[29] = second compound 10 µM, first compound 0.0316 µM
[30] = second compound 10 µM, first compound 0.1 µM
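For viability, T/C in this document: viability read after seven days of compound exposure; 100% = DMSO vehicle-treated spheroids so lower means less viable.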

## Cn1ncnc1[C@H]1c2n[nH]c(=O)c3cc(F)cc(c23)N[C@@H]1c1ccc(F)cc1 + C=CC(=O)N1CCN(c2nc(OCC3CCCN3C)nc3c2CCN(c2cccc4cccc(C)c24)C3)CC1CC#N
Second compound 0.0316 µM
  IC50: > 100 nM
Second compound 0.1 µM
  IC50: > 100 nM
Second compound 0.316 µM
  IC50: > 100 nM
Second compound 1 µM
  IC50: > 100 nM
Second compound 3.16 µM
  IC50: < 0.316 nM
Second compound 0.0316 µM, first compound 0.000316 µM
  viability, T/C: 94.5%
Second compound 0.0316 µM, first compound 0.001 µM
  viability, T/C: 109%
Second compound 0.0316 µM, first compound 0.00316 µM
  viability, T/C: 100%
Second compound 0.0316 µM, first compound 0.01 µM
  viability, T/C: 93.8%
Second compound 0.0316 µM, first compound 0.0316 µM
  viability, T/C: 99.2%
Second compound 0.0316 µM, first compound 0.1 µM
  viability, T/C: 79.8%
[1]
  viability, T/C: 114%
[2]
  viability, T/C: 98.5%
[3]
  viability, T/C: 110%
[4]
  viability, T/C: 94.9%
[5]
  viability, T/C: 98.3%
[6]
  viability, T/C: 80.5%
[7]
  viability, T/C: 92%
[8]
  viability, T/C: 109%
[9]
  viability, T/C: 106%
[10]
  viability, T/C: 108%
[11]
  viability, T/C: 90.1%
[12]
  viability, T/C: 79.4%
[13]
  viability, T/C: 103%
[14]
  viability, T/C: 95.4%
[15]
  viability, T/C: 105%
[16]
  viability, T/C: 84.8%
[17]
  viability, T/C: 70.8%
[18]
  viability, T/C: 63.4%
[19]
  viability, T/C: 0.19%
[20]
  viability, T/C: 0.19%
[21]
  viability, T/C: 0.16%
[22]
  viability, T/C: 0.18%
[23]
  viability, T/C: 0.21%
[24]
  viability, T/C: 0.27%

## CN(C)C/C=C/C(=O)Nc1cc2c(Nc3ccc(F)c(Cl)c3)ncnc2cc1O[C@H]1CCOC1 + CC1OCC2(CCN(c3cnc(Sc4ccnc(N)c4Cl)c(N)n3)CC2)C1N
Second compound 0.1 µM
  IC50: > 100 nM
Second compound 0.316 µM
  IC50: > 100 nM
Second compound 1 µM
  IC50: > 100 nM
Second compound 3.16 µM
  IC50: 28.9 nM
Second compound 10 µM
  IC50: 27.8 nM
[1]
  viability, T/C: 92.7%
[2]
  viability, T/C: 104%
[3]
  viability, T/C: 104%
[4]
  viability, T/C: 126%
[5]
  viability, T/C: 100%
[6]
  viability, T/C: 108%
[7]
  viability, T/C: 103%
[8]
  viability, T/C: 101%
[9]
  viability, T/C: 112%
[10]
  viability, T/C: 104%
[11]
  viability, T/C: 84.5%
[12]
  viability, T/C: 81.4%
[13]
  viability, T/C: 92.5%
[14]
  viability, T/C: 90.5%
[15]
  viability, T/C: 93.5%
[16]
  viability, T/C: 99.8%
[17]
  viability, T/C: 99.8%
[18]
  viability, T/C: 99.5%
[19]
  viability, T/C: 97.8%
[20]
  viability, T/C: 81.3%
[21]
  viability, T/C: 87.7%
[22]
  viability, T/C: 62.6%
[23]
  viability, T/C: 49.4%
[24]
  viability, T/C: 34.6%
[25]
  viability, T/C: 92.9%
[26]
  viability, T/C: 92%
[27]
  viability, T/C: 79.6%
[28]
  viability, T/C: 103%
[29]
  viability, T/C: 44.6%
[30]
  viability, T/C: 38.4%

## CCN1CCN(Cc2ccc(Nc3ncc(F)c(-c4cc(F)c5nc(C)n(C(C)C)c5c4)n3)nc2)CC1 + CNCc1ccccc1-c1csc(C(C)Nc2nc(C)nc3cc(OC)c(OC)cc23)c1
Second compound 0.1 µM
  IC50: > 1000 nM
Second compound 0.316 µM
  IC50: 970 nM
Second compound 1 µM
  IC50: 687 nM
Second compound 3.16 µM
  IC50: 115 nM
Second compound 10 µM
  IC50: < 3.16 nM
[3]
  viability, T/C: 97.5%
[4]
  viability, T/C: 86.7%
[5]
  viability, T/C: 93%
[6]
  viability, T/C: 117%
Second compound 0.1 µM, first compound 0.316 µM
  viability, T/C: 171%
Second compound 0.1 µM, first compound 1 µM
  viability, T/C: 72.5%
[9]
  viability, T/C: 87%
[10]
  viability, T/C: 91.3%
[11]
  viability, T/C: 106%
[12]
  viability, T/C: 144%
Second compound 0.316 µM, first compound 0.316 µM
  viability, T/C: 144%
Second compound 0.316 µM, first compound 1 µM
  viability, T/C: 48.3%
[15]
  viability, T/C: 90%
[16]
  viability, T/C: 85.5%
[17]
  viability, T/C: 96.2%
[18]
  viability, T/C: 132%
Second compound 1 µM, first compound 0.316 µM
  viability, T/C: 119%
Second compound 1 µM, first compound 1 µM
  viability, T/C: 23.6%
[21]
  viability, T/C: 80.7%
[22]
  viability, T/C: 85.4%
[23]
  viability, T/C: 118%
[24]
  viability, T/C: 56%
Second compound 3.16 µM, first compound 0.316 µM
  viability, T/C: 14%
Second compound 3.16 µM, first compound 1 µM
  viability, T/C: 0.14%
[27]
  viability, T/C: 0.18%
[28]
  viability, T/C: 0.37%
[29]
  viability, T/C: 0.19%
[30]
  viability, T/C: 0.15%
Second compound 10 µM, first compound 0.316 µM
  viability, T/C: 0.41%
Second compound 10 µM, first compound 1 µM
  viability, T/C: 0.15%

## CC(=O)Nc1cccc(-n2c(=O)n(C3CC3)c(=O)c3c(Nc4ccc(I)cc4F)n(C)c(=O)c(C)c32)c1 + COc1cc2nc(C)nc(NC(C)c3cc(N)cc(C(F)(F)F)c3)c2cc1OC1CCOC1
Second compound 0.1 µM
  IC50: 0.458 nM
Second compound 0.316 µM
  IC50: 0.343 nM
Second compound 1 µM
  IC50: 0.298 nM
Second compound 3.16 µM
  IC50: 0.226 nM
Second compound 10 µM
  IC50: < 0.1 nM
Second compound 0.1 µM, first compound 0.0001 µM
  viability, T/C: 116%
[1]
  viability, T/C: 68.2%
[2]
  viability, T/C: 11.4%
[3]
  viability, T/C: 4.55%
[4]
  viability, T/C: 1.94%
[5]
  viability, T/C: 1.13%
Second compound 0.316 µM, first compound 0.0001 µM
  viability, T/C: 108%
[7]
  viability, T/C: 53%
[8]
  viability, T/C: 10.2%
[9]
  viability, T/C: 3.15%
[10]
  viability, T/C: 2.07%
[11]
  viability, T/C: 1.01%
Second compound 1 µM, first compound 0.0001 µM
  viability, T/C: 118%
[13]
  viability, T/C: 46.3%
[14]
  viability, T/C: 8.75%
[15]
  viability, T/C: 4.43%
[16]
  viability, T/C: 1.55%
[17]
  viability, T/C: 1.02%
Second compound 3.16 µM, first compound 0.0001 µM
  viability, T/C: 108%
[19]
  viability, T/C: 26%
[20]
  viability, T/C: 6.24%
[21]
  viability, T/C: 2.83%
[22]
  viability, T/C: 1.04%
[23]
  viability, T/C: 0.82%
Second compound 10 µM, first compound 0.0001 µM
  viability, T/C: 13.9%
[25]
  viability, T/C: 3.04%
[26]
  viability, T/C: 1.39%
[27]
  viability, T/C: 0.49%
[28]
  viability, T/C: 0.21%
[29]
  viability, T/C: 0.23%
